Laboratory results published in PubChem BioAssay AID248 (DTP/NCI, 2004).
Values joined by “and” are separate entries in the source; they are usually repeats but may differ in a detail not shown here. Equal entries are not always repeated. Inconclusive results and toxic doses are left out. No stated cut-off is given here; in the data, active means T/C of 150% or more; inactive means T/C below 125%.

System: L1210 leukemia ip in BDF1 mice, survival T/C
Assay: NCI In Vivo Anticancer Drug Screen. Data for tumor model L1210 Leukemia (intraperitoneal) in B6D2F1 (BDF1) mice
Conditions: endpoint: mean survival time, higher = longer survival
How it was run: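 Value reflects the ratio of survival in compound-treated mice to survival in vehicle-treated controls, with both groups carrying the same transplanted tumor.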

[1] = dose: 100.0 mg/kg/injection, schedule: Q04DX003 (ip), vehicle: saline with Tween-80
[2] = dose: 100.0 mg/kg/injection, schedule: Q01DX001 (ip), vehicle: saline with Tween-80
[3] = dose: 200.0 mg/kg/injection, schedule: Q01DX001 (ip), vehicle: saline with Tween-80
[4] = dose: 400.0 mg/kg/injection, schedule: Q01DX001 (ip), vehicle: saline with Tween-80
[5] = dose: 50.0 mg/kg/injection, schedule: Q01DX009 (ip), vehicle: Klucel (hydroxypropylcellulose) (HPC)
[6] = dose: 100.0 mg/kg/injection, schedule: Q04DX002 (ip), vehicle: Klucel (hydroxypropylcellulose) (HPC)
[7] = dose: 200.0 mg/kg/injection, schedule: Q04DX002 (ip), vehicle: Klucel (hydroxypropylcellulose) (HPC)
[8] = dose: 100.0 mg/kg/injection, schedule: Q04DX003 (ip), vehicle: Klucel (hydroxypropylcellulose) (HPC)
[9] = dose: 200.0 mg/kg/injection, schedule: Q04DX003 (ip), vehicle: Klucel (hydroxypropylcellulose) (HPC)
[10] = dose: 100.0 mg/kg/injection, schedule: Q01DX009 (ip), vehicle: Klucel (hydroxypropylcellulose) (HPC)
[11] = dose: 100.0 mg/kg/injection, schedule: Q01DX001 (ip), vehicle: other
[12] = dose: 200.0 mg/kg/injection, schedule: Q01DX001 (ip), vehicle: other
[13] = dose: 400.0 mg/kg/injection, schedule: Q01DX001 (ip), vehicle: other
[14] = dose: 100.0 mg/kg/injection, schedule: Q01DX001 (ip), vehicle: saline
[15] = dose: 200.0 mg/kg/injection, schedule: Q01DX001 (ip), vehicle: saline
[16] = dose: 400.0 mg/kg/injection, schedule: Q01DX001 (ip), vehicle: saline

Measured: T/C

COc1ccc(-n2c(=O)c(N=Nc3ccc(Br)cc3)c(O)n(-c3ccccc3Cl)c2=S)cc1
inactive: dose: 37.5 mg/kg/injection, schedule: Q01DX001 (ip), vehicle: Klucel (hydroxypropylcellulose) (HPC) 110 % of control | dose: 75.0 mg/kg/injection, schedule: Q01DX001 (ip), vehicle: Klucel (hydroxypropylcellulose) (HPC) 104 % of control | dose: 150.0 mg/kg/injection, schedule: Q01DX001 (ip), vehicle: Klucel (hydroxypropylcellulose) (HPC) 95 % of control

O=c1cc(Nc2ccccc2Cl)[nH]c(=O)[nH]1
inactive: [1] 104 % of control | dose: 200.0 mg/kg/injection, schedule: Q04DX003 (ip), vehicle: saline with Tween-80 98 % of control | dose: 400.0 mg/kg/injection, schedule: Q04DX003 (ip), vehicle: saline with Tween-80 95 % of control

O=[N+]([O-])c1ccc(OCc2ccccc2)c(Cl)c1
inactive: dose: 25.0 mg/kg/injection, schedule: Q04DX003 (ip), vehicle: saline with Tween-80 102 % of control | dose: 50.0 mg/kg/injection, schedule: Q04DX003 (ip), vehicle: saline with Tween-80 96 % of control | [1] 98 % of control and 105 % of control

CC(=O)N/N=C/c1cccc([N+](=O)[O-])c1
inactive: dose: 50.0 mg/kg/injection, schedule: Q01DX009 (ip), vehicle: saline with Tween-80 102 % of control | dose: 100.0 mg/kg/injection, schedule: Q01DX009 (ip), vehicle: saline with Tween-80 97 % of control | dose: 200.0 mg/kg/injection, schedule: Q01DX009 (ip), vehicle: saline with Tween-80 94 % of control

CCOC(=O)C1CC1(C)c1ccccc1 (stereo not given)
inactive: dose: 100.0 mg/kg/injection, schedule: Q04DX002 (ip), vehicle: saline with Tween-80 97 % of control | dose: 200.0 mg/kg/injection, schedule: Q04DX002 (ip), vehicle: saline with Tween-80 93 % of control | dose: 400.0 mg/kg/injection, schedule: Q04DX002 (ip), vehicle: saline with Tween-80 90 % of control

Cc1nc(N)[nH]c(=O)c1N (tested in a mixture with another compound)
inactive: [2] 103 % of control | [3] 107 % of control | [4] 97 % of control

Cc1cccc(C)c1NC(=S)NC1CC(C)CC(C)(C)C1 (stereo not given)
inactive: dose: 12.5 mg/kg/injection, schedule: Q01DX009 (ip), vehicle: Klucel (hydroxypropylcellulose) (HPC) 100 % of control | dose: 25.0 mg/kg/injection, schedule: Q01DX009 (ip), vehicle: Klucel (hydroxypropylcellulose) (HPC) 109 % of control | [5] 96 % of control

O=C(O)c1ccc(C(=O)O)o1
inactive: [6] 95 % of control | [7] 91 % of control | dose: 400.0 mg/kg/injection, schedule: Q04DX002 (ip), vehicle: Klucel (hydroxypropylcellulose) (HPC) 91 % of control

N=C(c1ccccc1)c1ccccc1
inactive: [2] 100 % of control | [3] 101 % of control | [4] 94 % of control

O=C(NNc1ccc([N+](=O)[O-])cc1)c1ccccc1
inactive: [8] 94 % of control | [9] 94 % of control | dose: 400.0 mg/kg/injection, schedule: Q04DX003 (ip), vehicle: Klucel (hydroxypropylcellulose) (HPC) 100 % of control

CCCCCCCCC(=O)N1CC(C)OC(C)C1 (stereo not given)
inactive: [10] 120 % of control | dose: 100.0 mg/kg/injection, schedule: Q04DX003 (ip), vehicle: other 118 % of control | dose: 200.0 mg/kg/injection, schedule: Q01DX009 (ip), vehicle: Klucel (hydroxypropylcellulose) (HPC) 87 % of control | dose: 200.0 mg/kg/injection, schedule: Q04DX003 (ip), vehicle: other 109 % of control | dose: 400.0 mg/kg/injection, schedule: Q01DX009 (ip), vehicle: Klucel (hydroxypropylcellulose) (HPC) 94 % of control | dose: 400.0 mg/kg/injection, schedule: Q04DX003 (ip), vehicle: other 104 % of control

O=C(OCCCOC(=O)c1cccc([N+](=O)[O-])c1)c1cccc([N+](=O)[O-])c1
inactive: [11] 101 % of control | [12] 98 % of control | [13] 102 % of control

S=c1[nH]c(Cc2ccccc2)cs1
inactive: dose: 100.0 mg/kg/injection, schedule: Q01DX001 (sc), vehicle: carboxymethylcellulose (CMC) 103 % of control | dose: 200.0 mg/kg/injection, schedule: Q01DX001 (sc), vehicle: carboxymethylcellulose (CMC) 105 % of control | dose: 400.0 mg/kg/injection, schedule: Q01DX001 (sc), vehicle: carboxymethylcellulose (CMC) 103 % of control

Cc1cc(C)c2[nH]c(=O)c(C)c(C)c2c1Br
inactive: [11] 102 % of control | [12] 94 % of control | [13] 100 % of control

S=P(NCCS)(N1CC1)N1CC1
inactive: [14] 106 % of control | [15] 101 % of control | [16] 101 % of control

CC(C)(C)c1cc(CN2CCCCC2)cc(C(C)(C)C)c1O
inactive: dose: 12.5 mg/kg/injection, schedule: Q04DX003 (ip), vehicle: Klucel (hydroxypropylcellulose) (HPC) 101 % of control | dose: 25.0 mg/kg/injection, schedule: Q04DX003 (ip), vehicle: Klucel (hydroxypropylcellulose) (HPC) 114 % of control | dose: 50.0 mg/kg/injection, schedule: Q04DX003 (ip), vehicle: Klucel (hydroxypropylcellulose) (HPC) 97 % of control

Nc1ccc2c(c1)OCO2
inactive: dose: 90.0 mg/kg/injection, schedule: Q04DX003 (sc), vehicle: olive oil, sesame oil, peanut oil 106 % of control | dose: 100.0 mg/kg/injection, schedule: Q01DX009 (sc), vehicle: olive oil, sesame oil, peanut oil 107 % of control | dose: 100.0 mg/kg/injection, schedule: Q04DX003 (sc), vehicle: olive oil, sesame oil, peanut oil 101 % of control | dose: 133.0 mg/kg/injection, schedule: Q04DX003 (sc), vehicle: olive oil, sesame oil, peanut oil 119 % of control | dose: 200.0 mg/kg/injection, schedule: Q01DX009 (sc), vehicle: olive oil, sesame oil, peanut oil 112 % of control | dose: 400.0 mg/kg/injection, schedule: Q04DX003 (sc), vehicle: olive oil, sesame oil, peanut oil 108 % of control

O=C(N/N=C/c1ccc(N(CCCl)CCCl)cc1)c1ccc(C(=O)N/N=C/c2ccc(N(CCCl)CCCl)cc2)cc1
inactive: [5] 98 % of control | [10] 90 % of control | [8] 95 % of control | [9] 100 % of control

CC(C)(C)Nc1ccc(F)cc1
inactive: [6] 106 % of control | [7] 95 % of control

O=Cc1cc(=O)[nH]c(=O)[nH]1
inactive: dose: 50.0 mg/kg/injection, schedule: Q01DX001 (ip), vehicle: saline 109 % of control | [14] 109 % of control | [15] 105 % of control | [16] 97 % of control

CNC1C(=O)C2CCC(C2)C1c1ccccc1 (stereo not given)
inactive: [14] 108 % of control | [15] 100 % of control | [16] 96 % of control
